Experiments:
Histone deacetylase 1 = Histone deacetylase 1 (Homo sapiens, UniProt Q13547); assay: Inhibition of HDAC1
[1] = molecular target: T1, Protein deacetylase HDAC6 (Homo sapiens, UniProt Q9UBN7); assay: Inhibition of HDAC6
T1 sequence (Q9UBN7 whole entry): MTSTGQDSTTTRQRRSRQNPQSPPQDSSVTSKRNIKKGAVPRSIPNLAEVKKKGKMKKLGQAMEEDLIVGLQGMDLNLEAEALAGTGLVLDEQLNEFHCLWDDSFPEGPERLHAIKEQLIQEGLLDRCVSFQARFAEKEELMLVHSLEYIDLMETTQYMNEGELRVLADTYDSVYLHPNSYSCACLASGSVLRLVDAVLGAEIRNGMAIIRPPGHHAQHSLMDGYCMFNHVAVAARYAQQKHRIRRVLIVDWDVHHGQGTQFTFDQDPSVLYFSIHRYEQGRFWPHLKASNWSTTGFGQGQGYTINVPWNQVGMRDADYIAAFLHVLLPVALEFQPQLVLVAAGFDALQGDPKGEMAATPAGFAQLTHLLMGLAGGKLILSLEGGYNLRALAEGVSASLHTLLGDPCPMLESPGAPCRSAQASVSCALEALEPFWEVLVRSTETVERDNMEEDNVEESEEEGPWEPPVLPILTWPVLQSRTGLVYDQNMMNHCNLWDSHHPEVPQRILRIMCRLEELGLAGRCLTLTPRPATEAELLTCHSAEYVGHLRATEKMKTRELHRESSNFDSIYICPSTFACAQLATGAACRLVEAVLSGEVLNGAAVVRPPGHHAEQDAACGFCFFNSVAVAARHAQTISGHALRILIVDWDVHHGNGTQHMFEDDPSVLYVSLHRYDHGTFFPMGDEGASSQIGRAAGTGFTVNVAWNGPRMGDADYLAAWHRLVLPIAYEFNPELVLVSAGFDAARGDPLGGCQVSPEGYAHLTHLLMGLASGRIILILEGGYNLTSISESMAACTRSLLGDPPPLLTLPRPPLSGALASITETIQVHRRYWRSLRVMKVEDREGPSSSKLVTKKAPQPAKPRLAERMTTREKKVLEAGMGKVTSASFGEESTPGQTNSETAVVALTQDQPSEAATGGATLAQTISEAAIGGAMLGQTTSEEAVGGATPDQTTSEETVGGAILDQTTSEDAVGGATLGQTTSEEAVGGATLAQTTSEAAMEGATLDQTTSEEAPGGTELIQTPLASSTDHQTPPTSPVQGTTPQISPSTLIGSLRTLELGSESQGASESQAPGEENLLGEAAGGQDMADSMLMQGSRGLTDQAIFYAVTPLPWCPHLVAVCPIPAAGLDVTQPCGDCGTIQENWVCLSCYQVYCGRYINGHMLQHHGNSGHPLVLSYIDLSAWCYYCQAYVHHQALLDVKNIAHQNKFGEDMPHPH

Histone deacetylase 9 = Histone deacetylase 9 (Homo sapiens, UniProt Q9UKV0); assay: Inhibition of HDAC9
Chain of Histone deacetylase 9 (Q9UKV0 whole entry): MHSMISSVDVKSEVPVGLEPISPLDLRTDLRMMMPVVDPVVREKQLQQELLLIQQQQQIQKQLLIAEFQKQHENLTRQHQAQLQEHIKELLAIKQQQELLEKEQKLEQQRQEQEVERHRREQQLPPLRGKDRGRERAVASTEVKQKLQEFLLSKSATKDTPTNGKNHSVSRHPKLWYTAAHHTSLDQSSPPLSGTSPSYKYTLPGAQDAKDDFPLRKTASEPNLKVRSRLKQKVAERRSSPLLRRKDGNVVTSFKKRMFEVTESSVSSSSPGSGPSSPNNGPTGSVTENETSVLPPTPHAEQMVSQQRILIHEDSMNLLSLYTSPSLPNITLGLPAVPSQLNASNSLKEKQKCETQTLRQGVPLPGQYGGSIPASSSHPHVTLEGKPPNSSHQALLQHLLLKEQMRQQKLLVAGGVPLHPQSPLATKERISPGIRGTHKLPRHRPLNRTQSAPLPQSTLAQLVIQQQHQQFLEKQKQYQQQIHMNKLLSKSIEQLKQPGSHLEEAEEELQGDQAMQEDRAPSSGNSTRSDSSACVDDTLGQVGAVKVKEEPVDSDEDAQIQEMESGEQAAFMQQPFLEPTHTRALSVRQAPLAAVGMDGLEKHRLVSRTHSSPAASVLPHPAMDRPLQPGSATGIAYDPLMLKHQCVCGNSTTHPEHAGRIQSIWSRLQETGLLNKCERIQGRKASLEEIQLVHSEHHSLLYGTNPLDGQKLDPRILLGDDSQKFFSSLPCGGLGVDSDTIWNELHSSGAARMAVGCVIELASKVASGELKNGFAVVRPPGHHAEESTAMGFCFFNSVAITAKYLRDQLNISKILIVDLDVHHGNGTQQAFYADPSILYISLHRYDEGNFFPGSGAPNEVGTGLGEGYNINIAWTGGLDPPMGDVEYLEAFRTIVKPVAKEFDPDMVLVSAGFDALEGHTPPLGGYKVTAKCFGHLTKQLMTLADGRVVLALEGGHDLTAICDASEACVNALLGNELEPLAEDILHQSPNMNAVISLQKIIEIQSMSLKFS

Chain of Histone deacetylase 1 (Q13547 whole entry): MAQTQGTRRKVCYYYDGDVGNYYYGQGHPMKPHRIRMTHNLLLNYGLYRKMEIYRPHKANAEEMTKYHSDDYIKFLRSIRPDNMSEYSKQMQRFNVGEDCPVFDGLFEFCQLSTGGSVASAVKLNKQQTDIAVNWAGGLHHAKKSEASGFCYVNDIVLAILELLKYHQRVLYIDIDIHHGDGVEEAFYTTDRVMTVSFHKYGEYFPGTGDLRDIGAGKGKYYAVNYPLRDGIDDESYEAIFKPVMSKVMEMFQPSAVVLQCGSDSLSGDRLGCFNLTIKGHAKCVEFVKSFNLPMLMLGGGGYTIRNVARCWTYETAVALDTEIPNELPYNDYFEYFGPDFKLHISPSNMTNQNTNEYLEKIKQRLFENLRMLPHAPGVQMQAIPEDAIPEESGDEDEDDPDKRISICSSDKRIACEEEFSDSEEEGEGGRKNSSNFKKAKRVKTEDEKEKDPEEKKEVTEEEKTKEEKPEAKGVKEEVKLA

With O=C(CCCCCCC(=O)Nc1ccc([C@H]2O[C@@H](CSc3ccncc3)C[C@@H](c3ccccc3)O2)cc1)NO the Ki (Histone deacetylase 1) was 0.088 µM, the Ki [1] was 0.028 µM and the Ki (Histone deacetylase 9) was 6.1 µM.
